Data: article PMC10899660, “Global fungal-host interactome mapping identifies host targets of candidalysin” (Nature Communications, 2024)
Ends that are not written are not given here.

Experiments:
Cyclin H (CCNH) = target: T1, Cyclin H (CCNH) (Homo sapiens, UniProt P51946); test: Surface plasmon resonance (SPR) on BIAcore; conditions: binding to CCNH; for kon: association rate, read-out: Ka
T1 construct: purchased Sino Biological Inc. Lot; ME12NO2769 (a lot number; catalogue number not given); host or cells: E. coli
T1 sequence (P51946 1-323): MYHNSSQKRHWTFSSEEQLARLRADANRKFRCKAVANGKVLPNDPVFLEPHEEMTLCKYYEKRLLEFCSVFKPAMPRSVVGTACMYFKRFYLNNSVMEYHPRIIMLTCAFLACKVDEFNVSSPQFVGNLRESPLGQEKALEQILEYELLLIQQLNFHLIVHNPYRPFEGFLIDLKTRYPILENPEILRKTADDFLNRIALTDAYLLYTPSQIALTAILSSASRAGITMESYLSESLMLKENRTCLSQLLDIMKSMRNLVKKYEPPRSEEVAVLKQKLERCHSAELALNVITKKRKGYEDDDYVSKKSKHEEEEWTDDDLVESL
Description: Recombinant Cyclin H (CCNH) protein with a C-HIS tag (Lot. ME12NO2769, 38.46 kDa) was obtained from Sino Biological Inc. and stored at −80 °C. In short, the cyclin H (Homo sapiens) gene was amplified by PCR and cloned into an expression vector which was transformed into E. coli followed by the selection and establishment of high expression transformants. The protein was purified using immobilized metal ion affinity chromatography and dissolved in PBS (pH 7.4). SPR measurement was performed with Biacore T200 instrument (GE), at 25 °C, with a flow rate of 30 μL/min. CM5 sensor chips, HBS-EP running buffer and the Amine Coupling Kit, including 1-ethyl-3(3-dimethylaminopropyl) carbodiimide hydrochloride (EDC), N-hydroxysuccinimide (NHS), 1.0 M ethanolamine-HCl (pH 8.5) were purchased from GE. The binding properties of candidalysin to CCNH were evaluated upon immobilization of CCNH onto CM5 chip surface in flow cell 2 (FC-2) using Biacore Amine Coupling Kit according to the manufacturer’s instructions. CCNH was diluted to 20 μg/ml in acetate buffer (pH 4.0) in advance and immobilized on the CM5 Chip following the EDC/NHS protocol. The reached immobilized target level was 1200 RU. The reference flow cell (FC-1) was blank-immobilized following the templated procedure. BIAcore measurements were performed starting from a 1:1 serial dilution of candidalysin following the templated multicycle analysis (association time 120 s, dissociation time 150 s, flow 30 μL/min). The SPR measurement for Ece1-II, Ece1-IV, Ece1-V and human cathelicidin (Solarbio, CLP0454) to CCNH were performed with Biacore 8 K instrument (GE) by PBST running buffer, and the other conditions were the same.

A549 cells = test: Western blot of CCNH and γ-H2AX, A549 and CCNH-KD A549 cells; type: cell-based; conditions: A549, 10 μM, 4 h
Description: (§1) Cells were lysed with cell lysis buffer (Beyotime, #P0013) on ice for 30 min. The supernatant of cell lysate was then collected in a table-top refrigerated centrifuge at 4 °C and 14,000 × g for 10 min. Protein concentration was determined by Pierce™ BCA Protein Assay Kit (Thermo Scientific™, #23227). Antibodies against the following proteins were used for Western blotting analysis: CCNH antibody (CST,Rabbit Source, Cat#2927, 1:1000 dilution), gama-H2AX antibody (CST, Rabbit Source, Cat#97185, 1:1000 dilution), GAPDH (D16H11) XP® Rabbit mAb (CST, Rabbit Source, Cat#5174 S, 1:1000 dilution), Anti-CDK2 (phospho T160) + CDK1 (phospho T161) antibody (Abcam, Rabbit Source, Cat#EPR17621, 1:1000 dilution), Anti-rabbit IgG, HRP-linked Antibody (CST, Goat Source, Cat#7074, 1:5000 dilution), […] Tag (D6W5B) Rabbit mAb (CST, Rabbit Source, Cat#14793, 1:1000 dilution), GFP (4B10) Mouse mAb (CST, Mouse Source, Cat #2955, 1:1000 dilution), Anti-mouse IgG,HRP-linked antibody (CST, Goat Source, Cat#7076, 1:5000 dilution). Membranes were treated with SuperSignal™ West Pico PLUS Chemiluminescent Substrate (Thermo Scientific™, #34577) prior to visualization in the Chemiluminescence Imaging Analysis System (BG-gdsAUTO720, Baygene). GAPDH was used as the loading control.

FaDu cells = test: Western blot of CCNH and γ-H2AX, FaDu cells; type: cell-based; conditions: comparison toxins / low-dose Triton X-100
Description: as §1

Compound	kon (Cyclin H (CCNH)) [M⁻¹ s⁻¹]	DNA damage (CCNH and γ-H2AX expression) (FaDu cells)	also measured
CC[C@H](C)[C@H](NC(=O)[C@H](CO)NC(=O)[C@H](CCC(N)=O)NC(=O)[C@H](CCC(N)=O)NC(=O)[C@@H](NC(=O)CNC(=O)[C@@H](NC(=O)[C@H](C)NC(=O)[C@@H](NC(=O)[C@H](CCCNC(=N)N)NC(=O)[C@H](C)NC(=O)[C@@H](NC(=O)[C@@H](NC(=O)[C@H](CCC(=O)O)NC(=O)[C@@H]1CCCN1C(=O)[C@H](CC(C)C)NC(=O)[C@H](CCCNC(=N)N)NC(=O)[C@@H](NC(=O)[C@@H](NC(=O)[C@H](C)NC(=O)[C@H](CC(N)=O)NC(=O)[C@H](C)NC(=O)[C@@H](NC(=O)[C@H](CC(=O)O)NC(=O)[C@H](CC(=O)O)NC(=O)[C@H](CC(N)=O)NC(=O)[C@H](C)NC(=O)CNC(=O)[C@@H](N)CC(=O)O)C(C)C)C(C)C)C(C)C)[C@@H](C)CC)C(C)C)C(C)C)[C@@H](C)O)C(C)C)C(=O)N[C@@H](CCC(=O)O)C(=O)N[C@@H](CC(N)=O)C(=O)N[C@@H](C)C(=O)N[C@@H](CCCCN)C(=O)N[C@@H](CCCNC(=N)N)C(=O)O [Ece1-V]	228		
CC[C@H](C)[C@H](NC(=O)CNC(=O)[C@H](C)NC(=O)[C@@H](NC(=O)[C@@H](NC(=O)[C@H](CO)NC(=O)[C@H](CC(=O)O)NC(=O)[C@@H](NC(=O)[C@H](CC(=O)O)NC(=O)[C@@H](N)CCC(=O)O)[C@@H](C)CC)C(C)C)C(C)C)C(=O)N[C@H](C(=O)N[C@@H](C)C(=O)N[C@@H](CC(=O)O)C(=O)N[C@@H](CCSC)C(=O)N1CCC[C@H]1C(=O)N[C@@H](Cc1ccccc1)C(=O)N[C@H](C(=O)N[C@H](C(=O)N[C@@H](CCCNC(=N)N)C(=O)N[C@@H](C)C(=O)N[C@H](C(=O)N[C@@H](CC(=O)O)C(=O)N[C@H](C(=O)N[C@@H](C)C(=O)N[C@@H](CCSC)C(=O)N[C@H](C(=O)N[C@@H](CO)C(=O)N[C@H](C(=O)N[C@@H](C)C(=O)N[C@@H](CO)C(=O)N[C@H](C(=O)N[C@@H](CCCCN)C(=O)N[C@@H](CCCNC(=N)N)C(=O)O)[C@@H](C)O)C(C)C)[C@@H](C)O)[C@@H](C)O)C(C)C)C(C)C)C(C)C)[C@@H](C)CC [Ece1-IV]	49.8		
CN(C)C/C=C/C(=O)Nc1ccc(C(=O)Nc2cccc(Nc3ncc(Cl)c(-c4c[nH]c5ccccc45)n3)c2)cc1 [THZ1]			CCNH and γ-H2AX expression (A549 cells): prominently elevated CCNH and γ-H2AX expression
FKRIVQRIKDFLRNLVPRTES [Amp]	3040		Kd (Cyclin H (CCNH); column pK, row KD (M)): 6.26e-05 M
mellitin: pore forming toxin		failed to induce severe DNA damage	
Triton X-100		failed to induce severe DNA damage	
